Literature values in patent publication US20100144679A1, “MEDICATION KITS AND FORMULATIONS FOR PREVENTING, TREATING OR REDUCING SECONDARY FRACTURES AFTER PREVIOUS FRACTURE” (DUKE UNIVERSITY, priority 2007, published 2010).

Assays:
[1] = patients with reduced creatinine clearances
[2] = test system: bone resorption
[3] = test system: bone resorption; remark: listed apart in the source

C=C1/C(=C\C=C2/CCC[C@]3(C)[C@@H]([C@H](C)CCCC(C)(C)O)CC[C@@H]23)C[C@@H](O)C[C@@H]1O [calcitriol]
fall rates [1]: reduces fall rates

O=P(O)(O)C(O)(Cn1ccnc1)P(=O)(O)O [zoledronic acid, 1-hydroxy-2-(imidazol-1-yl)ethane-1,1-d-iphosphonic acid]
concentrations at which bone resorption is inhibited in vitro [2]: 0.3 to 30 nM | untoward effects on bone formation or mineralization ([3]; at the concentrations and doses that inhibit bone resorption): without exerting any untoward effects on either bone formation or mineralization | doses at which bone resorption is inhibited in vivo ([3]; in vivo): 0.3 to 30 µg/kg
